Columns and labels:
[1] = test system: sAPPβ (BACE1 cleavage of SEAP-APPwt) in SY5Y-BACEGFP-SEAPAPPwt cells; assay: cell-based BACE1 assay (sAPPβ modified ELISA); conditions: for IC50(sAPPβ) / IC50: SAR study, 8 concentrations (30-0.01 μM), SY5Y-BACEGFP-SEAPAPPwt cells; for IC50: read-out: IC50(sAPPβ)
Method: FIG. 1. An sAPPβ assay utilized to identify inhibitors of BACE1. The assay utilizes SY5Y cells stably overexpressing BACE-GFP and SEAP-APPwt. Cells are incubated with a candidate compound for 6 hours prior to harvesting media. BACE1-mediated cleavage of APP results in the release of sAPPβ into the media. α-secretase, a competing enzyme that is non-amyloidogenic, also cleaves APP to release […]. Using an sAPPβ-specific antibody (sβwt), SEAP-sAPPβ is specifically captured in a modified ELISA assay. Detection is achieved by addition of the fluorescent alkaline phosphatase substrate, 4-methylumbelliferyl phosphate (4-MUP).
(§1) FIG. 13. […] Compounds were tested in SY5Y-BACEGFP-SEAPAPPwt cells using the cell-based BACE1 assay. Select compounds were also investigated for Aβ-lowering effect using a commercial Aβ ELISA kit (BioSource). All compounds were tested at 8 concentrations (30, 10, 3, 1, 0.3, 0.1, 0.03, and 0.01 μM), and data points were analyzed with Origin software and fitted using a logistic model for IC50 determination.
As described in the Examples below, and depicted in FIG. 1, an sAPPβ ELISA assay may comprise cells, for example, SY5Y cells, transfected with a BACE1 reporter construct, such as a GFP-tagged BACE1 (BACE-GFP), and a wild type APP reporter construct, such as a secreted alkaline phosphatase (SEAP)-tagged wild type APP (SEAP-APPwt). BACE1 cleavage of the reporter-tagged APP (e.g. SEAP-APPwt) may result in secretion into the media of SEAP-tagged sAPPβ, which may be collected and specifically captured using an sAPPβ cleavage site-specific antibody (e.g. stβwt). Following washing, a substrate may be used, for example, the fluorescent alkaline phosphatase substrate 4-methylumbelliferyl phosphate (4-MUP), to detect the captured SEAP-sAPPβ.
A cell-based modified ELISA assay for measuring sAPPβ, the secreted ectodomain of β-amyloid precursor protein (APP) following β-secretase (BACE1) cleavage, was used to identify a class of compounds that interfered with the first step of sAPPβ generation. This assay has been described in International Application PCT/US2007/015938 (Published as International Publication No. WO 08/008463), which is herein incorporated in its entirety for all purposes.
The SY5Y-BACEGFP-SEAPAPPwt cell based assay was developed to discover novel small molecule modulators of BACE1 activity. SY5Y cells were stably transfected with GFP-tagged BACE1 (BACE-GFP) and secreted alkaline phosphatase (SEAP)-tagged wildtype APP (SEAP-APPwt). BACE1 cleavage of SEAP-APPwt results in secretion into the media of SEAP-tagged sAPPβ, which is collected and specifically captured using an sAPP0 cleavage site-specific antibody (sβwt). After washing, the fluorescent alkaline phosphatase substrate 4-methylumbelliferyl phosphate (4-MUP) is used to detect the captured SEAP-sAPPβ (FIG. 1).
The 15 LDDN compounds selected based on their 3-point dose-response profile were tested at 12 concentrations (ranging from 0.1 nM to 30 μM) in the cell-based BACE1 assay. The assay was conducted in 96-well format to maximize the Z′ factor. Compounds were characterized in duplicate cell plates, each containing 12 doses of compound in triplicate. Cell viability was measured at 6 and 24 hours using Promega's Cell Titer-Glo kit according to the manufacturer's protocol. The dose-response curves for sAPPβ reduction were plotted using Origin software and fitted using a logistic model for IC50 determination.
(§2) 27 structural analogs of LDN-0057228 were synthesized and tested using the cell-based BACE1 assay in SY5Y-BACEGFP-SEAPAPPwt cells (FIG. 13). 4 analogs, in addition to the parent compound, were also assessed for Aβ40 lowering activity using a commercial Aβ kit (BioSource). Because LDN-0057228 resembles CNS monoamine transporter inhibitors, this analog series was given the designation “CNS.” LDN-0057228 gave an unexpectedly low potency (IC50˜20 μM for both sAPPβ and Aβ40 reduction) compared to the ˜7 μM potency obtained using the same compound in FIG. 8.

[2] = test system: Aβ40 in SY5Y-BACEGFP-SEAPAPPwt cells; assay: Aβ40 ELISA (BioSource) in SY5Y-BACEGFP-SEAPAPPwt cells; format: cell-based; conditions: for IC50: SAR study, 8 concentrations (30-0.01 μM), SY5Y-BACEGFP-SEAPAPPwt cells
Method: FIG. 11. 5 LDDN compounds reduce Aβ40 in SYSY-BACEGFP-SEAPAPPwt cells. sAPPβ and 24-hour cell viability was performed as described in Chapter 4.1. Aβ40 ELISA was performed using the Aβ40 ELISA kit (BioSource) according to the manufacturer's protocol. Cell culture media was collected after 6 hours of treatment with 4 concentrations (30, 10, 3, 0.3 μM) of compound and diluted 3:10 prior to loading onto the Aβ ELISA plate. The data points for sAPPβ and Aβ were roughly superimposed. Data points represent mean±s.d. of 3 determinations.
as §1
In other non-limiting embodiments, the effective amount of at least one compound of Formulas I-VII, and/or a compound depicted in FIG. 19, may be correlated with the compound's ability to reduce the level of Aβ40 in an in vitro assay that measures the level of Aβ40 produced in a cell line, for example, an SY5Y-BACEGFP-SEAPAPPwt cell line. In one non-limiting example, the level of Aβ40 expressed by the cell line may be measured through the use of an Aβ40 Elisa kit (Bio Source). In one embodiment, the assay comprises incubating the Aβ40 expressing cells with a compound of Formulas I-VII, and/or a compound depicted in FIG. 19, followed by assaying the concentration of Aβ40 in the cell media. In such an assay, a greater reduction of Aβ40 concentration in the cell media following incubation with a compound compared to a control cell line not contacted with the compound is correlative with the compound's therapeutic efficacy.
The 15 LDDN compounds were tested in SY5Y-BACEGFP-SEAPAPPwt cells for their ability to reduce Aβ40 using a commercial Aβ40 ELISA kit (BioSource). SY5Y-BACEGFP-SEAPAPPwt cells were grown to 100% confluence and incubated with 4 concentrations of each compound (30, 10, 3, 0.3 μM). Cell culture media was collected after 6 hours of compound incubation and diluted 3:10 in sample diluent supplied in the Aβ40 ELISA kit. Aβ ELISA was performed according to the manufacturer's protocol. […] LDN-0057228 and LDN-0069630 are small molecules with ample chemical space for modification, and are thus considered good candidates for medicinal chemistry.
as §2

[3] = test system: Aβ40 in Lenti-APPsw infected primary cortical neurons; assay: Aβ40 ELISA in Lenti-APPsw infected primary cortical neurons; format: cell-based, mouse; conditions: 24 hours
Method: FIG. 15A-D. LDN-0057228 reduces Aβ40 and sAPPβ in primary neurons. DIV-14 primary cortical neurons from wild-type mice were incubated for 24 hours with primary culture media containing lentivirus harboring APPsw. After infection, neurons were incubated for 48 hours with 1:1 fresh to conditioned media to allow for APP expression. Neurons were then treated with LDN-0057228 at 20 μM for 24 hours in triplicate. A) Media was collected for Aβ40 ELISA. Raw Aβ40 values were normalized to APP to control for variations in lentiviral infection efficiency. B) Cell lysates were probed with 6E10 antibody to visualize the transduced full-length APP. C) sAPPβ from neuron culture media was immunoprecipitated with sβsw antibody and probed with LN27. D) Quantification of sAPPβ, normalized to APP. Data in A) and […]) represent mean+s.d. of 3 wells. Bands from B) and C) were quantified using ImageJ software.
FIG. 16A-B. CNS-2 and LDN-0057228 reduce Aβ40 in primary neurons. DIV-14 primary cortical neurons from wild-type mice were incubated for 24 hours with primary culture media containing lentivirus harboring APPsw. After infection, neurons were incubated for 48 hours with 1:1 fresh to conditioned media to allow for APP expression. Neurons were then treated for 24 hours with the indicated compound and concentration. A) Media was collected for Aβ40 ELISA. Raw Aβ40 values were normalized to APP to control for variations in lentiviral infection efficiency. B) Cell lysates were probed with 6E10 antibody to visualize the transduced full-length APP.
Lenti-APPsw infected primary cortical neurons were selected for the initial round of physiological experiments due to the relatively large batches of wild-type primary cortical neurons that were routinely harvested in the lab, the ease of lentiviral packaging. Primary cortical neurons were harvested from wild-type P0 pups using established protocols.
The Lenti-APPsw vector was co-transfected into HEK293 T cells with ViraPower packaging mix (Invitrogen) to generate the lentivirus. Lentiviral-mediated transduction of APPsw in primary neurons was performed by adding neuron primary culture media containing the lentiviral particles to wild-type DIV-14 primary neurons (FIG. 14). After 24 hours, neurons were incubated with media for 72 hours prior to collecting for Aβ40 measurement. Two batches of virus (LV-1 and LV-2) were tested, showing that there is batch-to-batch variation in the viral titer.
Using this experimental paradigm, LDN-0057228 was tested at 20 μM concentration to confirm the sAPPβ- and Aβ-lowering activity of the compound (FIG. 15). The protocol was modified slightly to allow for 24-hour compound treatment. […]

Row | Compound | IC50(sAPPβ) [1] | IC50 [1] [µM] | also measured
1 | O=C(CCc1ccccc1)NCCNCCOC(c1ccc(F)cc1)c1ccc(F)cc1 [CNS-21] | inactive |  | 
2 | NC[C@@H]1CCCN1CCOC(c1ccc(F)cc1)c1ccc(F)cc1 [CNS-6] |  | 27.9 | 
3 | Fc1ccc(C(OCCN2CC[C@H]2CNCCCc2ccccc2)c2ccc(F)cc2)cc1 [CNS-20] | inactive |  | 
4 | CNC[C@@H]1CCCN1CCOC(c1ccc(F)cc1)c1ccc(F)cc1 [CNS-3] |  | 11.5 | IC50 [2]: 11.5 µM
5 | NC[C@H]1CCCN1CCOC(c1ccc(F)cc1)c1ccc(F)cc1 [CNS-10] |  | 38.3 | 
6 | CS(=O)(=O)c1nnnn1-c1ccccc1Cl [LDN-0069630] |  |  | reduction in Aβ40 ([3]; 10 μM): 15%; reduction in Aβ40 ([3]; 15 μM): 40%; dose-dependent decrease in Aβ40 ([2]; 4 concentrations (30, 10, 3, 0.3 μM), 6 hours): caused a dose-dependent decrease in Aβ40
7 | NC(=O)[C@@H]1CCCN1CCOC(c1ccc(F)cc1)c1ccc(F)cc1 [CNS-16] | inactive |  | 
8 | Fc1ccc(C(OCCN2CCN(CCCc3ccccc3)CC2)c2ccc(F)cc2)cc1 [GBR 12909, reference compound] |  | 34.6 | IC50 [2]: 14.5 µM
9 | O=C(CCc1ccccc1)NCCN(CCOC(c1ccc(F)cc1)c1ccc(F)cc1)CCOC(c1ccc(F)cc1)c1ccc(F)cc1 [CNS-23] | inactive |  | 
10 | NC(=O)[C@@H]1CCN1CCOC(c1ccc(F)cc1)c1ccc(F)cc1 [CNS-17] | inactive |  | 
11 | COC(=O)NC[C@@H]1CCCN1CCOC(c1ccc(F)cc1)c1ccc(F)cc1 [CNS-4] |  | 23.3 | 
12 | O=C(CCc1ccccc1)NC[C@@H]1CCN1CCOC(c1ccc(F)cc1)c1ccc(F)cc1 [CNS-19] | inactive |  | 
13 | NC[C@@H]1CCCN1C(c1ccc(F)cc1)c1ccc(F)cc1 [CNS-25] |  | 31.4 | 
14 | Fc1ccc(C(c2ccc(F)cc2)N2CCC[C@H]2CNCCCc2ccccc2)cc1 [CNS-27] |  | 10.2 | 
15 | NC(=O)[C@@H]1CCCN1C(c1ccc(F)cc1)c1ccc(F)cc1 [CNS-24] | inactive |  | 
16 | BACE inhibitor IV [reference compound] |  |  | suppression of sAPPβ generation ([1]; 10 μM, positive control, 384-well LDDN screen, on average): > 95%
17 | NC(=O)[C@@H]1CCCCN1CCOC(c1ccc(F)cc1)c1ccc(F)cc1 [CNS-15] | inactive |  | 
18 | O=C(CCc1ccccc1)NC[C@H]1CCCN1CCOC(c1ccc(F)cc1)c1ccc(F)cc1 [CNS-9] |  | 20.4 | 
19 | NC(=O)[C@H]1CCCN1CCOC(c1ccc(F)cc1)c1ccc(F)cc1 [CNS-11] | inactive |  | 
20 | Fc1ccc(C(OCCN2CCC[C@@H]2CNCCCc2ccccc2)c2ccc(F)cc2)cc1 [CNS-8] |  | 5.7 | 
21 | NC[C@@H]1CCCCN1CCOC(c1ccc(F)cc1)c1ccc(F)cc1 [CNS-12] |  | > 50 | 
22 | NC[C@@H]1CCN1CCOC(c1ccc(F)cc1)c1ccc(F)cc1 [CNS-18] |  | > 50 | 
23 | CC(=O)NC[C@@H]1CCCN1CCOC(c1ccc(F)cc1)c1ccc(F)cc1 [CNS-5] |  | 20.8 | 
24 | Fc1ccc(C(OCCNCCNCCCc2ccccc2)c2ccc(F)cc2)cc1 [CNS-22] | inactive |  | 
25 | Fc1ccc(C(OCCN2CCC[C@H]2CNCCCc2ccccc2)c2ccc(F)cc2)cc1 [CNS-1] |  | 10.5 | 
26 | Fc1ccc(C(OCCN2CCCC[C@H]2CNCCCc2ccccc2)c2ccc(F)cc2)cc1 [CNS-13] |  | 9 | 
27 | O=C(CCc1ccccc1)NC[C@@H]1CCCCN1CCOC(c1ccc(F)cc1)c1ccc(F)cc1 [CNS-14] |  | 14 | 
28 | O=C(CCc1ccccc1)NC[C@@H]1CCCN1C(c1ccc(F)cc1)c1ccc(F)cc1 [CNS-26] |  | 32.1 | 

Reference: patent US20110071124A1, “Compounds that Inhibit Production of sAPPB and AB and Uses Thereof” (The Trustees of Columbia University in the City of New York, priority 2008, published 2011)
